Results published in patent US20250195536A1, “BICYCLOOCTANE KRAS INHIBITORS” (Incyte Corporation, priority 2023, published 2025).

Tests used:
[1] = target: KRAS G12D (Homo sapiens, UniProt P01116, G12D); assay: GDP-GTP exchange assay (KRAS G12D); format: biochemical; conditions: bodipy-GDP/GppNHp exchange with SOS1; 4 h pre-incubation, 2 h reaction;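 also: one dagger IC50 up to 100 nM and two daggers above 100 nM up to 1 μM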
How it was run: (§1)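 IC50 came from a four-parameter fit of fluorescence loss (485/520 nm) as SOS1 (150 nM) swapped bodipy-GDP for GppNHp (500 μM) on 2.5 nM KRAS, final concentrations. Compounds were pre-incubated 4 h at r.t. (pH 7.5 Hepes, 10 mM MgCl2); exchange ran 2 h (G12D) or 3 h (G12V).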

[2] = target: KRAS G12V (Homo sapiens, UniProt P01116, G12V); assay: GDP-GTP exchange assay (KRAS G12V); format: biochemical; conditions: bodipy-GDP/GppNHp exchange with SOS1; 3 h incubation after GppNHp-SOS1;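 also: one dagger IC50 up to 100 nM and two daggers above 100 nM up to 1 μM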
Sequence of KRAS G12V (P01116 1-188 isoform P01116-2 G12V): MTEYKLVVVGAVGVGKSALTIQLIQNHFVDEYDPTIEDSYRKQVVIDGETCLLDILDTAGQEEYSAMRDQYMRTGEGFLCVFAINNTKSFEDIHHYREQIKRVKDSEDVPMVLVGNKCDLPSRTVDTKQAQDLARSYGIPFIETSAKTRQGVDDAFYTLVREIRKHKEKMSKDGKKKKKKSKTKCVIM
How it was run: as §1

[3] = Caco2 assay (permeability, Papp A-B); format: in vitro ADME; conditions: human, Caco-2, absorptive direction (A-B), 50 μM test compound, 4% BSA in receiver
How it was run: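 Absorptive (A-B) Papp: 50 μM test compound in HBSS added to apical side of 22-25-day Caco-2 monolayers (TEER 300 Ω·cm^2), receiver buffer containing 4% BSA. After 120 min at 37 °C, 5% CO2, both sides analysed by LCMS; Papp calculated from flux rate normalized to area and donor amount.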

Sequence of KRAS G12D (P01116 1-188 isoform P01116-2 G12D): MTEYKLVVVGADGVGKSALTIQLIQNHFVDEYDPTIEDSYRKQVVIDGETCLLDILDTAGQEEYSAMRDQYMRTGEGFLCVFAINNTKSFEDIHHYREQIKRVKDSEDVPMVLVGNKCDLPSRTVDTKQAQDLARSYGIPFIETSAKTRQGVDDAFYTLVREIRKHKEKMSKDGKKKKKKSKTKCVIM

Compound	G12D_exchange (KRAS_G12D exchange assay IC50) [1]	G12V_exchange (KRAS_G12V exchange assay IC50) [2]	Papp A→B at 120 min, 50 μM [3]
Cc1nc2c(F)c(-c3cccc(Cl)c3Cl)c(CCC#N)cc2c2c1cc([C@H]1[C@H]3C[C@H](CN(c4nccc(C(F)F)c4F)C3)N1C(=O)C1CC1)n2[C@H]1[C@H]2CN[C@@H]1C2 (atropisomer, axis not shown; (Ra)) [Example 54, 3-((Ra)-1-((1R,4R,5S)-2-azabicyclo[2.1.1]hexan-5-yl)-2-((1S,5R,7R)-6-(cyclopropanecarbonyl)-3-(4-(difluoromethyl)-3-fluoropyridin-2-yl)-3,6-diazabicyclo[3.2.1]octan-7-yl)-7-(2,3-dichlorophenyl)-6-fluoro-4-methyl-1H-pyrrolo[3,2-c]quinolin-8-yl)propanenitrile]	†	†	≤ 0.5 ×10⁻⁶ cm/s
Cc1nc2c(F)c(-c3cccc(Cl)c3Cl)c(CCC#N)cc2c2c1cc([C@H]1[C@H]3C[C@H](CN(c4ccnc(C(=O)N(C)C)c4)C3)N1C(=O)C1CC1)n2[C@H]1[C@H]2CN[C@@H]1C2 [Example 64, 4-((1S,5R,7R)-7-((Ra)-1-((1R,4R,5S)-2-azabicyclo[2.1.1]hexan-5-yl)-8-(2-cyanoethyl)-7-(2,3-dichlorophenyl)-6-fluoro-4-methyl-1H-pyrrolo[3,2-c]quinolin-2-yl)-6-(cyclopropanecarbonyl)-3,6-diazabicyclo[3.2.1]octan-3-yl)-N,N-dimethylpicolinamide]	†	†	≤ 0.5 ×10⁻⁶ cm/s
Cc1nc2c(F)c(-c3cccc(Cl)c3Cl)c(CCC#N)cc2c2c1cc([C@H]1[C@H]3C[C@H](CN(c4ccc5c(c4)OC(F)(F)O5)C3)N1C(=O)C1CC1)n2[C@H]1[C@H]2CN[C@@H]1C2 (atropisomer, axis not shown; (Ra)) [Example 7, 3-((Ra)-1-((1R,4R,5S)-2-azabicyclo[2.1.1]hexan-5-yl)-2-((1S,5R,7R)-6-(cyclopropanecarbonyl)-3-(2,2-difluorobenzo[d][1,3]dioxol-5-yl)-3,6-diazabicyclo[3.2.1]octan-7-yl)-7-(2,3-dichlorophenyl)-6-fluoro-4-methyl-1H-pyrrolo[3,2-c]quinolin-8-yl)propanenitrile]	†	†	≤ 0.5 ×10⁻⁶ cm/s
Cc1nc2c(F)c(-c3cccc(Cl)c3Cl)c(CCC#N)cc2c2c1cc([C@H]1[C@H]3C[C@H](CN(c4ccoc(=O)c4)C3)N1C(=O)C1CC1)n2[C@H]1[C@H]2CN[C@@H]1C2 (atropisomer, axis not shown; (Ra)) [Example 73, 3-((Ra)-1-((1R,4R,5S)-2-azabicyclo[2.1.1]hexan-5-yl)-2-((1S,5R,7R)-6-(cyclopropanecarbonyl)-3-(2-oxo-2H-pyran-4-yl)-3,6-diazabicyclo[3.2.1]octan-7-yl)-7-(2,3-dichlorophenyl)-6-fluoro-4-methyl-1H-pyrrolo[3,2-c]quinolin-8-yl)propanenitrile]	†	†	≤ 0.5 ×10⁻⁶ cm/s
Cc1nc2c(F)c(-c3cccc(Cl)c3Cl)c(CCC#N)cc2c2c1cc([C@H]1[C@H]3C[C@H](CN(c4cnc(C(F)(F)F)cn4)C3)N1C(=O)C1CC1)n2[C@H]1[C@H]2CN[C@@H]1C2 (atropisomer, axis not shown; (Ra)) [Example 44, 3-((Ra)-1-((1R,4R,5S)-2-azabicyclo[2.1.1]hexan-5-yl)-2-((1S,5R,7R)-6-(cyclopropanecarbonyl)-3-(5-(trifluoromethyl)pyrazin-2-yl)-3,6-diazabicyclo[3.2.1]octan-7-yl)-7-(2,3-dichlorophenyl)-6-fluoro-4-methyl-1H-pyrrolo[3,2-c]quinolin-8-yl)propanenitrile]	†	†	≤ 0.5 ×10⁻⁶ cm/s
Cc1nc2c(F)c(-c3cccc(Cl)c3Cl)c(CCC#N)cc2c2c1cc([C@H]1[C@H]3C[C@H](CN(c4ccn(CC(C)C)c(=O)c4)C3)N1C(=O)C1CC1)n2[C@H]1[C@H]2CN[C@@H]1C2 (atropisomer, axis not shown; (Ra)) [Example 58, 3-((Ra)-1-((1R,4R,5S)-2-azabicyclo[2.1.1]hexan-5-yl)-2-((1S,5R,7R)-6-(cyclopropanecarbonyl)-3-(1-isobutyl-2-oxo-1,2-dihydropyridin-4-yl)-3,6-diazabicyclo[3.2.1]octan-7-yl)-7-(2,3-dichlorophenyl)-6-fluoro-4-methyl-1H-pyrrolo[3,2-c]quinolin-8-yl)propanenitrile]	†	†	≤ 0.5 ×10⁻⁶ cm/s
COc1ccnc(N2C[C@@H]3C[C@H](C2)N(C(=O)C2CC2)[C@H]3c2cc3c(C)nc4c(F)c(-c5cccc(Cl)c5Cl)c(CCC#N)cc4c3n2[C@H]2[C@H]3CN[C@@H]2C3)c1F (atropisomer, axis not shown; (Ra)) [Example 55, 3-((Ra)-1-((1R,4R,5S)-2-azabicyclo[2.1.1]hexan-5-yl)-2-((1S,5R,7R)-6-(cyclopropanecarbonyl)-3-(3-fluoro-4-methoxypyridin-2-yl)-3,6-diazabicyclo[3.2.1]octan-7-yl)-7-(2,3-dichlorophenyl)-6-fluoro-4-methyl-1H-pyrrolo[3,2-c]quinolin-8-yl)propanenitrile]	††	†	0.5 to 1 ×10⁻⁶ cm/s
Cc1nc2c(F)c(-c3cccc(Cl)c3Cl)c(CCC#N)cc2c2c1cc([C@H]1[C@H]3C[C@H](CN(c4cc(C(F)(F)F)ccn4)C3)N1C(=O)C1CC1)n2[C@H]1[C@H]2CN[C@@H]1C2 (atropisomer, axis not shown; (Ra)) [Example 39, 3-((Ra)-1-((1R,4R,5S)-2-azabicyclo[2.1.1]hexan-5-yl)-2-((1S,5R,7R)-6-(cyclopropanecarbonyl)-3-(4-(trifluoromethyl)pyridin-2-yl)-3,6-diazabicyclo[3.2.1]octan-7-yl)-7-(2,3-dichlorophenyl)-6-fluoro-4-methyl-1H-pyrrolo[3,2-c]quinolin-8-yl)propanenitrile]	†	†	≤ 0.5 ×10⁻⁶ cm/s

Next, values leading:

G12D_exchange (KRAS_G12D exchange assay IC50) [1]	G12V_exchange (KRAS_G12V exchange assay IC50) [2]	Papp A→B at 120 min, 50 μM [3]	Compound
†	†	0.5 to 1 ×10⁻⁶ cm/s	Cc1cccnc1N1C[C@@H]2C[C@H](C1)N(C(=O)C1CC1)[C@H]2c1cc2c(C)nc3c(F)c(-c4cccc(Cl)c4Cl)c(CCC#N)cc3c2n1[C@H]1[C@H]2CN[C@@H]1C2 (atropisomer, axis not shown; (Ra)) [Example 48, 3-((Ra)-1-((1R,4R,5S)-2-azabicyclo[2.1.1]hexan-5-yl)-2-((1S,5R,7R)-6-(cyclopropanecarbonyl)-3-(3-methylpyridin-2-yl)-3,6-diazabicyclo[3.2.1]octan-7-yl)-7-(2,3-dichlorophenyl)-6-fluoro-4-methyl-1H-pyrrolo[3,2-c]quinolin-8-yl)propanenitrile]
†	†	> 1 ×10⁻⁶ cm/s	Cc1nc2c(F)c(-c3cccc(Cl)c3Cl)c(CCC#N)cc2c2c1cc([C@H]1[C@H]3C[C@H](CN(c4ncc(C(C)C)s4)C3)N1C(=O)C1CC1)n2[C@H]1[C@H]2CN[C@@H]1C2 (atropisomer, axis not shown; (Ra)) [Example 32, 3-((Ra)-1-((1R,4R,5S)-2-Azabicyclo[2.1.1]hexan-5-yl)-2-((1 S,5R,7R)-6-(cyclopropanecarbonyl)-3-(5-isopropylthiazol-2-yl)-3,6-diazabicyclo[3.2.1]octan-7-yl)-7-(2,3-dichlorophenyl)-6-fluoro-4-methyl-1H-pyrrolo[3,2-c]quinolin-8-yl)propanenitrile]
†	†	≤ 0.5 ×10⁻⁶ cm/s	Cc1cc(N2C[C@@H]3C[C@H](C2)N(C(=O)C2CC2)[C@H]3c2cc3c(C)nc4c(F)c(-c5cccc(Cl)c5Cl)c(CCC#N)cc4c3n2[C@H]2[C@H]3CN[C@@H]2C3)cc(F)n1 (atropisomer, axis not shown; (Ra)) [Example 79, 3-((Ra)-1-((1R,4R,5S)-2-azabicyclo[2.1.1]hexan-5-yl)-2-((1S,5R,7R)-6-(cyclopropanecarbonyl)-3-(2-fluoro-6-methylpyridin-4-yl)-3,6-diazabicyclo[3.2.1]octan-7-yl)-7-(2,3-dichlorophenyl)-6-fluoro-4-methyl-1H-pyrrolo[3,2-c]quinolin-8-yl)propanenitrile]
†	†	≤ 0.5 ×10⁻⁶ cm/s	CCc1cnc(N2C[C@@H]3C[C@H](C2)N(C(=O)C2CC2)[C@H]3c2cc3c(C)nc4c(F)c(-c5cccc(Cl)c5Cl)c(CCC#N)cc4c3n2[C@H]2[C@H]3CN[C@@H]2C3)s1 (atropisomer, axis not shown; (Ra)) [Example 99, 3-((Ra)-1-((1R,4R,5S)-2-azabicyclo[2.1.1]hexan-5-yl)-2-((1S,5R,7R)-6-(cyclopropanecarbonyl)-3-(5-ethylthiazol-2-yl)-3,6-diazabicyclo[3.2.1]octan-7-yl)-7-(2,3-dichlorophenyl)-6-fluoro-4-methyl-1H-pyrrolo[3,2-c]quinolin-8-yl)propanenitrile]
